Experimental data published in US20240118281A1, “ANTICANCER COMPOUNDS AND USES THEREOF” (University of Florida Research Foundation, Incorporated, priority 2021, published 2024).

Experiments:
[1] = test system: HER2+ BT474 xenograft tumors; test: BT474 xenograft tumor study, H&E staining of mammary fat pads/tumors; type: in vivo, mice; conditions: 20 mg/kg intraperitoneal, four consecutive days; vehicle tumors showed no necrosis
Experimental: Breast cancer liver metastasis was initiated in NOD-SCID-gamma (NSG) mice obtained from Jackson Laboratories (Bar Harbor, ME) by injecting 1×10^6 cancer cells into the #4 mammary fat pads as described previously (Wang M, et al. Cell Death Discovery 2019; 5: 153). Mice bearing HCI-001/LVM2 breast tumors were treated once daily for four consecutive days with 20 mg/kg tcyDTDO by oral gavage and livers were collected. Animals bearing HER2+ BT474 tumors were treated with the vehicle or 20 mg/kg dMtcyDTDO or dFtcyDTDO by intraperitoneal injection for four consecutive days. Tissue samples fixed in 4% paraformaldehyde/PBS and paraffin-embedded were sectioned and stained with hematoxylin and eosin (H&E) by the University of Florida Molecular Pathology Core (https://molecular.pathology.ufl.edu/).

[2] = test system: MDA-MB-468 cells; test: Cell viability (MTT) assay; type: cell-based; conditions: FIG. 1D
Experimental: MTT (3-(4,5-dimethylthiazol-2-yl)-2,5-diphenyltetrazolium bromide) (Biomatik, Wilmington, DE) assays were performed by plating 7,500 cells/well in 10% FBS/DMEM in a 96-well plate, followed by incubation at 37° C. for 24 h. Cells were then treated with vehicle or increasing concentrations of tcyDTDO, dMtcyDTDO, or dFtcyDTDO and incubated at 37° C. for 72 h. Cell media was subsequently removed from each well and MTT assays were initiated by incubating cells with 0.5 mg/ml MTT in PBS for 3 h, followed by removal of the MTT solution and addition of 100 µL of DMSO to each well for 30 min. Absorbance of the MTT formazan product was subsequently measured at 570 and 690 (reference) nm in a plate reader.

[3] = test system: DR4; test: Disulfide bond-mediated oligomerization, non-reducing immunoblot; type: cell-based; conditions: MDA-MB-468 cells, 24 h
Source text: (§1) The BT20, BT474, BT549, MCF7, MDA-MB-231, MDA-MB-436, MDA-MB-468, HCC1143, HCC1500, HCC1569, HCC1937, HCC1954, Hs578t, and T47D cells lines were purchased from American Type Culture Collection (ATCC) (Manassas, VA). The HCI-001 cell line was derived from an ER-/PR-/HER2- patient-derived xenograft originally isolated from a patient as described previously (DeRose Y S, et al. Nat Med 2011; 17: 1514-1520). The HCI-001/LVM2 model was derived from the HCI-001 cell line by performing two rounds of selection for liver metastasis, as described previously (Wang M, et al. Cell Death Discovery 2019; 5: 153). Cell lines were grown in Dulbecco's Modified Eagle's Medium (GE Healthcare Life Sciences, Logan, UT) containing 10% fetal bovine serum (10% FBS—DMEM) in a humidified incubator with 5% CO2 at 37° C. Cell lysates were prepared as described previously (Law B K, et al. Mol Cell Biol. 2002; 22: 8184-8198). Immunoblot analysis was performed utilizing the following antibodies purchased from Cell Signaling Technology (Beverly, MA) [Akt, #4691; P-Akt[T308], #13038; ATF4, #11815; CHOP, #2895; Cleaved Caspase 8, #9496; DR4, #42533; DR5, #8074; EGFR, #4267; GRP78, #3177; HER3, #4754; PARP, #9532; PDIA1, #3501; XBP1s, #12782], from Santa Cruz Biotechnology (Santa Cruz, CA) [Actin, sc-47778; AGR2/3, sc-376653; AGR3, sc-390940; ERO1-a, sc-100805; and ERp44, sc-393687], or from Rockland Immunochemicals, Inc. (Limerick, PA), Streptavidin-Alkaline Phosphatase conjugated (SA-AP), S000-05.
(§2) To assess protein disulfide bond-mediated oligomerization, cells were treated with DDAs for 24 h in 10% FBS-DMEM. Cells were subsequently scraped directly into the media and pelleted by centrifugation. Cells were extracted directly into boiling 2×-SDS-Sample Buffer containing 100 mM NEM and boiled for 10 min. Samples were sonicated, followed by centrifugation for 20 min at room temperature. Samples were subsequently analyzed by SDS-PAGE and immunoblot.

[4] = test system: EGFR; test: as above; type: cell-based; conditions: MDA-MB-468 cells, 24 h, FIG. 1E right
Source text: as §1, §2

[5] = test system: DR5; test: Disulfide bond-mediated oligomerization and levels, non-reducing immunoblot; type: cell-based; conditions: MDA-MB-468 cells, 24 h
Source text: as §1, §2

[6] = test system: GRP78; test: Endoplasmic reticulum stress (ERS) induction, immunoblot; type: cell-based; conditions: MDA-MB-468 cells, 24 h
Source text: as §1, §2

[7] = target: T1, ERp44 (Homo sapiens, UniProt Q9BS26, S61C); test: ERp44 disulfide bonding with client proteins, non-reducing immunoblot; type: cell-based; conditions: MDA-MB-468 cells overexpressing ERp44[S61C], 7.5 μM, 24 h, FIG. 6B
T1 construct: endogenous in cells; host or cells: MDA-MB-468
Experimental: as §2

[8] = test system: ERAP1; test: ERAP1 retention/secretion in MDA-MB-468 cells, immunoblot; type: cell-based; conditions: MDA-MB-468 stable cell lines expressing ERp44, 24 h, FIG. 4E
Source text: as §1, §2

[9] = target: T2, ERp44 (Homo sapiens, UniProt Q9BS26); test: ERp44 disulfide bonding with client proteins, non-reducing immunoblot; type: cell-based; set-up: endogenous in cells; host or cells: MDA-MB-468; conditions: MDA-MB-468 cells overexpressing wild type ERp44, 7.5 μM, 24 h, FIG. 6B
T2 sequence (Q9BS26 30-406): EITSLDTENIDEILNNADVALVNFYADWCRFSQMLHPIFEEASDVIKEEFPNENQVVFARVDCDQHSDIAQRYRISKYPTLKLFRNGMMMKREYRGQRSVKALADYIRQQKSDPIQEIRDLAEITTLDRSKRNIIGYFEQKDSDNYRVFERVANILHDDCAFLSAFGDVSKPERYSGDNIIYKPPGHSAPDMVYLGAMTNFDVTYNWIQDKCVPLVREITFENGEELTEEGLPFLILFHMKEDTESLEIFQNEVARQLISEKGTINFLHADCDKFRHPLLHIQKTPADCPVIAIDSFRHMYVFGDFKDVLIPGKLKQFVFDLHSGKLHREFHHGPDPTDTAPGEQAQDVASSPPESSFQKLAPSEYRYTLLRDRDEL
Experimental: as §2

[10] = compared with tcyDTDO, FIG. 1E left

T1 sequence (Q9BS26 30-406 S61C): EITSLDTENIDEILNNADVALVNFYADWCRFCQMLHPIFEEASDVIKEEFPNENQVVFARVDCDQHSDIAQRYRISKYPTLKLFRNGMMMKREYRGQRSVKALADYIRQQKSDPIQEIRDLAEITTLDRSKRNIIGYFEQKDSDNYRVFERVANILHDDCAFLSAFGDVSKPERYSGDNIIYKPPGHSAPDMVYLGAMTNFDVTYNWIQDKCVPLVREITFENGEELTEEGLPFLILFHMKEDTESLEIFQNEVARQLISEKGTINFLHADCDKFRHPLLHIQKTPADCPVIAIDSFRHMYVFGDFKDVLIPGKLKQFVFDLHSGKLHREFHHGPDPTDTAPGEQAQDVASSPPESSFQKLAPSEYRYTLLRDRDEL

## O=S1(=O)CC2CC(F)C(F)CC2CS1 (centres unmarked) [dFtcyDTDO, difluoro-tcyDTDO]
[1]
  Tumors in mammary fat pads, H&E histology: tumors were not observed
[2]
  Potency in cell viability assays relative to tcyDTDO: approximately two-fold greater potency than tcyDTDO
[3]; FIG. 1E right
  Concentration at which disulfide-mediated oligomerization of DR4 was detected: 625 nM
[3]; [10]
  DR4/5 oligomerization at the same concentration (DR4): more DR4/5 oligomerization
[4]
  Concentration at which disulfide-mediated oligomerization of EGFR was detected: 625 nM
[5]; 7.5 μM, FIG. 6B
  DR5 upregulation in cells overexpressing C58S or S61C ERp44 mutants: potentiated DR5 upregulation
[5]; FIG. 1E right
  Concentration at which oligomerization of DR5 was observed: 1.25 µM
[5]; [10]
  DR4/5 oligomerization at the same concentration (DR5): more DR4/5 oligomerization
  DR5 levels at the same concentration: higher DR5 levels
[6]; FIG. 1E right
  Concentration at which induction of ERS (GRP78 elevation) was detected: 625 nM
[6]; [10]
  ERS at the same concentration: greater ERS
[7]
  Disruption of S61C ERp44 mutant binding to its clients, versus wild type: less sensitive to disruption of binding to its clients
[8]
  ERAP1-ERp44 disulfide-bonded dimer: reduced
[9]
  Disulfide bonding of overexpressed ERp44 to client proteins: partially blocked
